“And” between values parts separate entries of the source, which are not always exact repeats. Identical values can stand only once.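 96-well plates; 48 h exposure; 5 concentrations. Endpoints by linear interpolation between flanking doses. Not reached: highest tested concentration assigned. GI50: concentration for 50% inhibition of growth. TGI: total growth inhibition.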

Some test systems named below: NCI-H460 lung; LOX IMVI melanoma; COLO 205 colon; M14 melanoma; CAKI-1 renal; HT29 colon; MALME-3M melanoma; MCF7 breast; EKVX NSCLC; HCC-2998 colon.
What all share (test): NCI anticancer screen, dose series, 48 h

As to `CC1OC(CC(=O)O)Cc2c1c(O)c1c(O)cc(-c3cc(=O)c4c(=O)c5c(c(=O)c=4c3=O)CC(CC(=O)O)OC5C)c(O)c1c2O` (configuration not stated), the GI50 with NCI-H460 lung is 35 µM; with COLO 205 colon it was 29.9 µM; with M14 melanoma, 24.4 µM; in the experiment on CAKI-1 renal, 23.6 µM; in the experiment on HT29 colon, 26.1 µM; in the experiment with MALME-3M melanoma it was 14.2 µM. Besides, the GI50 with MCF7 breast is 27.7 µM; in the experiment on EKVX NSCLC, 26.1 µM; with HCC-2998 colon, 18.9 µM. In addition, the TGI is above 100 µM in the experiment with NCI-H460 lung; 36.5 µM in the experiment with LOX IMVI melanoma; 18.1 µM and 92.9 µM in the experiment with COLO 205 colon; 32 µM and 75.9 µM with M14 melanoma; 87.5 µM and 52.7 µM in the experiment on CAKI-1 renal; 55.6 µM and 94.7 µM with HT29 colon. In addition, the TGI is 29.2 µM and 38.5 µM in the experiment with MALME-3M melanoma; 18.3 µM and 74.5 µM in the experiment on EKVX NSCLC; > 73.9 µM and 55.2 µM with HCC-2998 colon.
As to `S=C1SCN(Cc2ccccc2)CN1Cc1ccccc1`, the GI50 in the experiment with NCI-H460 lung was 31 µM; with LOX IMVI melanoma, 3 µM; with COLO 205 colon, 3.21 µM; in the experiment with M14 melanoma, 6.5 µM; in the experiment with CAKI-1 renal it was 7.19 µM; with HT29 colon, 3.89 µM. For the same molecule, the GI50 in the experiment on MALME-3M melanoma was 8.75 µM; in the experiment on MCF7 breast, 2.19 µM; in the experiment on EKVX NSCLC it was 21.2 µM; with HCC-2998 colon it was 21.7 µM. The TGI was above 100 µM in the experiment with NCI-H460 lung; 15 µM in the experiment with LOX IMVI melanoma; 11.6 µM in the experiment with COLO 205 colon; 27.8 µM with M14 melanoma; 20.9 µM in the experiment on CAKI-1 renal; 15.1 µM in the experiment on HT29 colon. For the same molecule, the TGI is 26.7 µM with MALME-3M melanoma, 15.1 µM with MCF7 breast, above 57.8 µM in the experiment with EKVX NSCLC and 37.8 µM with HCC-2998 colon.
With `CCOC(=O)Nc1ccc2c(c1)C(=O)N(CC)c1ccccc1O2`, the GI50 was 0.116 µM with NCI-H460 lung; 0.198 µM in the experiment on LOX IMVI melanoma; 0.0819 µM with COLO 205 colon; 0.0617 µM with M14 melanoma; 0.179 µM with CAKI-1 renal; 0.0791 µM with HT29 colon. In addition, the GI50 in the experiment with MALME-3M melanoma is 31.8 µM; with MCF7 breast it was 0.139 µM; in the experiment on EKVX NSCLC, 0.264 µM; in the experiment on HCC-2998 colon, 0.309 µM. For the same molecule, the TGI with NCI-H460 lung is above 100 µM; in the experiment on LOX IMVI melanoma, above 100 µM; in the experiment with COLO 205 colon, 0.617 µM; with M14 melanoma, above 100 µM; in the experiment on CAKI-1 renal, above 100 µM; with HT29 colon it was above 39.6 µM. Further, the TGI in the experiment on MALME-3M melanoma, in the experiment with MCF7 breast, in the experiment on EKVX NSCLC and in the experiment on HCC-2998 colon was above 100 µM each time.
For `O=C(Nc1cn[nH]c1-c1nc2ccc(CN3CCOCC3)cc2[nH]1)NC1CC1`, the GI50 in the experiment with NCI-H460 lung is 1.78 µM and 7.25 µM; in the experiment with LOX IMVI melanoma, 0.324 µM and 0.604 µM; in the experiment on COLO 205 colon, 0.0376 µM and 0.0752 µM; in the experiment on M14 melanoma, 1.52 µM and 4.84 µM; in the experiment on HT29 colon, 0.272 µM and 2.22 µM; with MALME-3M melanoma, 3.05 µM and > 10 µM. Also, the GI50 is 0.522 µM and 2.07 µM in the experiment on MCF7 breast; 1.76 µM and > 10 µM in the experiment on EKVX NSCLC; 1.76 µM and > 10 µM with HCC-2998 colon. For the same molecule, the TGI in the experiment on NCI-H460 lung is 10.5 µM and > 10 µM; with LOX IMVI melanoma, 1.88 µM and > 10 µM; in the experiment with COLO 205 colon, 1.75 µM and 3.81 µM; in the experiment on M14 melanoma, 4.34 µM and > 10 µM; in the experiment with CAKI-1 renal, 15.2 µM and > 10 µM; in the experiment on HT29 colon, 4.71 µM and > 10 µM. Further, the TGI in the experiment on MALME-3M melanoma was 8.32 µM and > 10 µM; in the experiment on MCF7 breast, 7.37 µM and > 10 µM; in the experiment with EKVX NSCLC, 9.94 µM and > 10 µM; in the experiment with HCC-2998 colon, 3.81 µM and > 10 µM.
Consider `O=C(c1ccc2ccccc2c1)c1c(C(F)(F)F)n([O-])c2cc(C(F)(F)F)ccc2[n+]1=O`, for which the GI50 in the experiment on NCI-H460 lung was 1.66 µM; in the experiment with LOX IMVI melanoma, 1.63 µM; with COLO 205 colon, 1.92 µM; in the experiment with M14 melanoma, 1.65 µM; in the experiment with CAKI-1 renal, 0.621 µM; with HT29 colon, 1.74 µM. Also, the GI50 was 1.67 µM in the experiment on MALME-3M melanoma, 1.63 µM with MCF7 breast, 1.57 µM in the experiment on EKVX NSCLC and 1.82 µM with HCC-2998 colon. For the same molecule, the TGI with NCI-H460 lung was 3.44 µM; in the experiment on LOX IMVI melanoma, 3.22 µM; with COLO 205 colon, 4.05 µM; with M14 melanoma, 3.1 µM; in the experiment with CAKI-1 renal, 1.45 µM; in the experiment on HT29 colon, 3.46 µM. Also, the TGI stood at 3.36 µM in the experiment on MALME-3M melanoma, 3.49 µM in the experiment with MCF7 breast, 3.43 µM with EKVX NSCLC and 3.37 µM in the experiment with HCC-2998 colon.
Regarding `CCc1cccc(NC(=O)Nc2ccc(Oc3ccc4nc(NC(=O)OC)[nH]c4c3)cc2)c1`, the GI50 with NCI-H460 lung was 3.4 µM; in the experiment on LOX IMVI melanoma it was 3.77 µM; in the experiment with COLO 205 colon, 6.8 µM; with M14 melanoma, 3.13 µM; in the experiment on CAKI-1 renal, above 15.4 µM; in the experiment on HT29 colon, 2.04 µM. The GI50 is 2.14 µM with MALME-3M melanoma, 0.654 µM with MCF7 breast, above 23.9 µM with EKVX NSCLC and 11.7 µM in the experiment on HCC-2998 colon. The TGI with NCI-H460 lung was 12.4 µM; in the experiment with LOX IMVI melanoma it was above 17.3 µM; with COLO 205 colon it was above 17.9 µM; in the experiment on M14 melanoma, 12.6 µM; with CAKI-1 renal it was above 25 µM; with HT29 colon it was above 13.4 µM. Moreover, the TGI was 11.1 µM in the experiment on MALME-3M melanoma, above 6.24 µM in the experiment on MCF7 breast, above 25 µM in the experiment on EKVX NSCLC and above 25 µM in the experiment on HCC-2998 colon.

For the origin of these results see PubChem BioAssay (NCI).
